Here are results for 34 compounds from ChEMBL document CHEMBL5576070, “The recent discovery of a promising pharmacological scaffold derived from carvacrol: A review” (Bioorg Med Chem Lett, 2024).

One experiment concerns the target Mushroom tyrosinase (Agaricus bisporus, UniProt O42713+Q00024+C7FF04+C7FF05). Kind of experiment: Inhibition of mushroom tyrosinase using L-DOPA as substrate by spectrophotometric analysis. The format is protein assay.
The target of experiment [1] is T1, Acetylcholinesterase (Homo sapiens, UniProt P22303). Kind of experiment: Inhibition of AChE (unknown origin) using acetylthiocholine iodide as substrate by Ellman's method. In general terms: In Ellman's method for cholinesterases, released thiocholine reacts with DTNB.
T1 sequence (P22303 whole entry): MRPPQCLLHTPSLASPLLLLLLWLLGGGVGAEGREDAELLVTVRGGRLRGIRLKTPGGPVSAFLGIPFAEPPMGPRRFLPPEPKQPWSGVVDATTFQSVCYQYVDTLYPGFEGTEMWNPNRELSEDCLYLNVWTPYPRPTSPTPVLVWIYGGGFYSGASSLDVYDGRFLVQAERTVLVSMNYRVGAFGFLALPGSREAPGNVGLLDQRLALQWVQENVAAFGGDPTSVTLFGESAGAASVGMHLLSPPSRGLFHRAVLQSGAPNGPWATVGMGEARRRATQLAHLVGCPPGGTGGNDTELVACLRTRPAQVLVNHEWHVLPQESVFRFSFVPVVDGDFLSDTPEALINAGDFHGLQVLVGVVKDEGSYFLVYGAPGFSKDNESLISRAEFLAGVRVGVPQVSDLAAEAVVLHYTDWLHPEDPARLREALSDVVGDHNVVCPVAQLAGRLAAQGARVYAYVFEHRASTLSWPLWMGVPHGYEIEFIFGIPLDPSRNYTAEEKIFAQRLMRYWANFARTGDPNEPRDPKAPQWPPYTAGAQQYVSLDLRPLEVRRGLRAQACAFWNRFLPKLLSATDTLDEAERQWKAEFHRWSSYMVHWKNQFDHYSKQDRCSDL
A further experiment concerns Bacillus subtilis. The experiment in a line: Antibacterial activity against Bacillus subtilis assessed as zone of inhibition. Type of experiment: functional.
A further experiment has as its system Helicobacter pylori. The experiment in a line: Antibacterial activity against Helicobacter pylori assessed as reduction in bacterial growth incubated for 24 hrs by broth micro-dilution method. The format is functional. A general note: Broth dilution looks for growth in wells or tubes with falling amounts of substance.
The next experiment has as its system MIA PaCa-2. The experiment in a line: Growth inhibition of human MIA PaCa-2 cells measured for 48 hrs by SRB assay. Type of experiment: functional.
Experiment [2] has as its system Escherichia coli. Kind of experiment: Antibacterial activity against Escherichia coli assessed as reduction in bacterial growth incubated for 24 hrs by Mueller-Hinton agar based analysis. The format is functional.
Another experiment deals with Pseudomonas aeruginosa. The experiment in a line: Antibacterial activity against Pseudomonas aeruginosa ATCC 15442 assessed as reduction in bacterial growth incubated for 24 hrs by Mueller-Hinton agar based analysis. Type of experiment: functional.
For experiment [3], the system named is Staphylococcus epidermidis. The experiment in a line: Antimicrobial activity against Staphylococcus epidermidis ATCC 12228 assessed as reduction in bacterial growth incubated for 24 hrs by Mueller-Hinton agar based analysis. Type of experiment: functional.
Another experiment concerns Staphylococcus aureus. Kind of experiment: Antimicrobial activity against Staphylococcus aureus […] assessed as reduction in bacterial growth incubated for 24 hrs by Mueller-Hinton agar based analysis. The format is functional.
For experiment [4], the system named is Escherichia coli. Kind of experiment: microbe, parasite or virus in culture. The settings on record: ATCC 25922, 24 h.
In another experiment the test system is Salmonella enteritidis. Kind of experiment: Antibacterial activity against Salmonella enterica subsp. enterica serovar Enteritidis assessed as reduction in bacterial growth inhibition. Type of experiment: functional.
Experiment [5] has as its system Salmonella typhimurium. Kind of experiment: Antibacterial activity against Salmonella typhimurium DT104 assessed as reduction in bacterial growth inhibition. Type of experiment: functional, Salmonella enterica subsp. enterica serovar Typhimurium.
In experiment [6] the test system is Escherichia coli. The experiment in a line: Antibacterial activity against Escherichia coli assessed as reduction in bacterial growth inhibition. Type of experiment: functional.
Experiment [7] deals with Clostridium perfringens. Kind of experiment: Antibacterial activity against Clostridium perfringens assessed as reduction in bacterial growth inhibition. The format is functional.
A further experiment has as its system Phytophthora capsici. Kind of experiment: Antifungal activity against Phytophthora capsici. The format is functional, organism-based.
The next experiment has as its target Cholinesterase (Homo sapiens, UniProt P06276). Kind of experiment: Inhibition of human BChE using butyrylthiocholine iodide as substrate incubated for 15 mins by spectrophotometric Ellman's method.
Experiment [8] has as its target T1, Acetylcholinesterase. The experiment in a line: Inhibition of AChE (unknown origin).
Experiment [9] relates to Clostridium perfringens. The experiment in a line: Antibacterial activity against Clostridium perfringens assessed as bacterial growth inhibition after 24 hrs by microdilution method. Type of experiment: functional.
Experiment [10] concerns Salmonella typhimurium. Kind of experiment: Antibacterial activity against Salmonella typhimurium DT104 assessed as inhibition of bacterial growth incubated for 18 hrs by CLSI protocol based microbroth dilution method. The format is functional, Salmonella enterica subsp. enterica serovar Typhimurium. The settings on record: Salmonella enterica.
A short description of experiment [11]: Antioxidant activity assessed as DPPH radical scavenging activity incubated for 20 mins by spectrophotometric method. The format is functional. Background: The DPPH test is a chemical assay of radical scavenging.

Converted amounts (≈) assume the structure as drawn.

Sequence of Cholinesterase (P06276 whole entry): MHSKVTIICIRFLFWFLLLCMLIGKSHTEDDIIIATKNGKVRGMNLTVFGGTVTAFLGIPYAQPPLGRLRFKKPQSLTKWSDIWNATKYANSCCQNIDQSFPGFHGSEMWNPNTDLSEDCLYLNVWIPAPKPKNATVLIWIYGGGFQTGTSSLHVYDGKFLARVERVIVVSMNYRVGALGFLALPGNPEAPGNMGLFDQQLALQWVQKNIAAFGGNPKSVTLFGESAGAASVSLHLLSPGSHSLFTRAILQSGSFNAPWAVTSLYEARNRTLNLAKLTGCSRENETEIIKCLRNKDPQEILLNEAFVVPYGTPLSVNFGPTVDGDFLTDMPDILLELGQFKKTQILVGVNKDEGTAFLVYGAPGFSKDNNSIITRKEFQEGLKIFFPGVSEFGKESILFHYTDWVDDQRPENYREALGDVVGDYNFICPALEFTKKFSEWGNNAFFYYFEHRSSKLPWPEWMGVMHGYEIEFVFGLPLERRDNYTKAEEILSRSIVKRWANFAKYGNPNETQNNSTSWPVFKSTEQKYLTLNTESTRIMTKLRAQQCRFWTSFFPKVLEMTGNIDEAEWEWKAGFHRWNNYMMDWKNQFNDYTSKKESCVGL

In the case of `Cc1ccc(C(C)C)cc1OC(=O)COC(=O)/C=C/c1ccc(O)cc1`, at Mushroom tyrosinase, the IC50 (commonly the concentration needed to halve the response being measured) turned out to be 6500 nM. In the case of `CCN(CC)CC(O)COc1cc(C(C)C)ccc1C` (stereo not given), the midpoint of inhibition at Acetylcholinesterase [1], the IC50, lay at 136 nM. For `Cc1ccc(C(C)C)cc1OCC(=O)Nc1ccccc1`, the “inhibition zone (IZ)” value in the experiment with Bacillus subtilis worked out at 8 mm.

As for `Cc1cccc(COc2cc(C(C)C)ccc2C)c1`, the MIC in the experiment on Helicobacter pylori was 2 µg/mL (≈ 7.86 µM). With `Cc1ccc(S(=O)(=O)N/N=C/c2c(C(C)C)ccc(C)c2O)cc1`, in the experiment with MIA PaCa-2, it took 10 µg/mL (≈ 28.9 µM) to inhibit growth by half (GI50). For `Cc1ccc(C(C)C)cc1OC(=O)COC(=O)c1ccc(O)c(O)c1`, the IC50 at Mushroom tyrosinase is 15900 nM.

In turn, `C=CCNCC(O)COc1cc(C(C)C)ccc1C` (stereo not given) yielded an IC50 at Acetylcholinesterase [1] of 136 nM. Regarding `CSC[C@H](NC(C)=O)C(=O)Oc1cc(C(C)C)ccc1C`, the MIC was found to be 10 µg/mL (≈ 32.3 µM) in the experiment with Escherichia coli [2], 10 µg/mL (≈ 32.3 µM) with Pseudomonas aeruginosa, 2.5 µg/mL (≈ 8.08 µM) in [3] and 10 µg/mL (≈ 32.3 µM) in the experiment with Staphylococcus aureus. For the compound `Cc1ccc(C(C)C)cc1OCc1ccc(S(C)(=O)=O)cc1`, the MIC in the experiment on Helicobacter pylori was 2 µg/mL (≈ 6.28 µM). Take `C=CCSC[C@H](NC(C)=O)C(=O)Oc1cc(C(C)C)ccc1C`: the MIC came to 2.5 µg/mL (≈ 7.45 µM) in the experiment with Escherichia coli [2], 5 µg/mL (≈ 14.9 µM) with Pseudomonas aeruginosa, 2.5 µg/mL (≈ 7.45 µM) in experiment [3] and 2.5 µg/mL (≈ 7.45 µM) in the experiment with Staphylococcus aureus. In the experiment on Escherichia coli [4], `CCC(=O)Oc1cc(C(C)C)ccc1C` displayed an MIC of 11.7 µg/mL (≈ 56.7 µM).

In the experiment with Escherichia coli [4], `Cc1ccc(C(C)C)cc1OC(=O)c1ccccc1` showed an MIC of 11.7 µg/mL (≈ 46 µM). In the case of `C#CCSC[C@H](NC(C)=O)C(=O)Oc1cc(C(C)C)ccc1C`, the MIC in the experiment with Escherichia coli [2] was found to be 10 µg/mL (≈ 30 µM); with Pseudomonas aeruginosa, 10 µg/mL (≈ 30 µM); in experiment [3], 5 µg/mL (≈ 15 µM); in the experiment with Staphylococcus aureus, 10 µg/mL (≈ 30 µM). Consider `Cc1cc(S(=O)(=O)O)c(C(C)C)cc1O`, for which the MIC in the experiment on Salmonella enteritidis was 0.37 %v/v; in the experiment with Salmonella typhimurium [5], 0.75 %v/v; in the experiment with Escherichia coli [6], 0.75 %v/v; in the experiment with Clostridium perfringens [7], 0.37 %v/v.

As to `CCC(C)(NC(=O)c1cc(Cl)c(C)c(Cl)c1)C(=O)CCl` (stereo not given) [ZOXAMIDE], the EC50 (as a rule, the concentration that produces a half-maximal response) with Phytophthora capsici came out at 0.0268 µg/mL (≈ 0.0796 µM). Turning to `Cc1ccc(C(C)C)cc1OC(=O)C(C)C`, the MIC with Escherichia coli [4] stood at 11.7 µg/mL (≈ 53.1 µM). `Cc1ccc(C(C)C)cc1OCC(O)CNCc1cccnc1` (stereo not given) displayed an IC50 at Acetylcholinesterase [1] of 136 nM. On to `COc1ccc(CCNC(=O)COc2cc(C(C)C)ccc2C)cc1OC`, for which the values for the IC50 against Cholinesterase and against Acetylcholinesterase [8] were 50 nM and 1930 nM, respectively. Take `Cc1ccc(C(C)C)c(/C=N/Nc2cc(Cl)ncn2)c1O`: it took 80 µg/mL (≈ 262 µM) to inhibit growth with MIA PaCa-2 by half (GI50). Consider `Cc1ccc(C(C)C)cc1OCCn1c([N+](=O)[O-])cnc1C`, for which the MIC in the experiment with Clostridium perfringens [9] came out at 1 µg/mL (≈ 3.3 µM).

On to `Cc1ccc(C(C)C)cc1OCC(=O)NCCNc1cccc2cccnc12`, for which the IC50 was 50 nM at Cholinesterase and 1930 nM at Acetylcholinesterase [8]. With `Cc1cc(S(=O)(=O)[O-])c(C(C)C)cc1O.[K+]`, the MIC in the experiment with Salmonella enteritidis was 1.25 %v/v; in the experiment on Salmonella typhimurium [5], 1.25 %v/v; in the experiment on Escherichia coli [6] it was 5 %v/v; in the experiment with Clostridium perfringens [7], 0.37 %v/v.

As to `CCOc1cc(C(C)C)ccc1C`, in the experiment on Salmonella typhimurium [10], the MIC came out at 0.2 µg/mL (≈ 1.12 µM). Turning to `CCCCCCCCCCCC(=O)Oc1cc(C(C)C)ccc1C`, the MIC is listed as greater than 10 %v/v with Salmonella enteritidis, greater than 10 %v/v with Salmonella typhimurium [5], greater than 10 %v/v with Escherichia coli [6] and less than 10 %v/v in the experiment with Clostridium perfringens [7]. For `Cc1ccc(C(C)C)cc1OCC(=O)NCCC1=CCCCC1`, the 50% inhibitory concentration (IC50) against Cholinesterase was found to be 50 nM; at Acetylcholinesterase [8], 1930 nM. On to `Cc1ccc(C(C)C)cc1OC(=O)COC(=O)c1ccc(O)cc1`, for which the IC50 on Mushroom tyrosinase turned out to be 14900 nM. On to `Cc1ccc(C(C)C)cc1OC(=O)Cn1c([N+](=O)[O-])cnc1C`, for which the MIC in the experiment on Clostridium perfringens [9] was 2.7 µg/mL (≈ 8.51 µM). In the case of `Cc1ccc(C(C)C)cc1OC(=O)CCCC[C@@H]1CCSS1`, the MIC with Escherichia coli [2] was 5 µg/mL (≈ 14.8 µM); in the experiment on Pseudomonas aeruginosa, 5 µg/mL (≈ 14.8 µM); in experiment [3], 10 µg/mL (≈ 29.5 µM); in the experiment with Staphylococcus aureus, 10 µg/mL (≈ 29.5 µM). `C/C=C/C(=O)Oc1cc(C(C)C)ccc1C`: the MIC in the experiment with Escherichia coli [4] was 11.7 µg/mL (≈ 53.6 µM). As to `Cc1ccc(C(C)C)c(/C=N/Nc2ccc(Cl)nn2)c1O`, in the experiment with MIA PaCa-2, halving of growth (GI50) required 80 µg/mL (≈ 262 µM). For the compound `Cc1ccc(C(C)C)cc1OCC(=O)N1Cc2ccccc2C1`, the IC50 was determined as 50 nM against Cholinesterase and 1930 nM against Acetylcholinesterase [8]. Regarding `Cc1cc(CO)c(C(C)C)cc1O`, the IC50 in experiment [11] was 156 µg/mL (≈ 865 µM). In the case of `Cc1ccc(C(C)C)cc1OCC(=O)NCCN1CCN(C)CC1`, the IC50 came out at 50 nM against Cholinesterase and 1930 nM against Acetylcholinesterase [8].

Consider `Cc1cc(C)c(S(=O)(=O)N/N=C/c2c(C(C)C)ccc(C)c2O)c(C)c1`, for which halving of growth in the experiment on MIA PaCa-2 (GI50) required 10 µg/mL (≈ 26.7 µM).
